# Columns and labels:
# [1] = tested on: α-1,4-glucan lyase
# [2] = tested on: α-1,4-glucan lyase; test: Effect of substrate on the stability of the lyase; assay type: biochemical; conditions: soluble and immobilized enzyme system
# Target sequence in this assay (as listed by the source): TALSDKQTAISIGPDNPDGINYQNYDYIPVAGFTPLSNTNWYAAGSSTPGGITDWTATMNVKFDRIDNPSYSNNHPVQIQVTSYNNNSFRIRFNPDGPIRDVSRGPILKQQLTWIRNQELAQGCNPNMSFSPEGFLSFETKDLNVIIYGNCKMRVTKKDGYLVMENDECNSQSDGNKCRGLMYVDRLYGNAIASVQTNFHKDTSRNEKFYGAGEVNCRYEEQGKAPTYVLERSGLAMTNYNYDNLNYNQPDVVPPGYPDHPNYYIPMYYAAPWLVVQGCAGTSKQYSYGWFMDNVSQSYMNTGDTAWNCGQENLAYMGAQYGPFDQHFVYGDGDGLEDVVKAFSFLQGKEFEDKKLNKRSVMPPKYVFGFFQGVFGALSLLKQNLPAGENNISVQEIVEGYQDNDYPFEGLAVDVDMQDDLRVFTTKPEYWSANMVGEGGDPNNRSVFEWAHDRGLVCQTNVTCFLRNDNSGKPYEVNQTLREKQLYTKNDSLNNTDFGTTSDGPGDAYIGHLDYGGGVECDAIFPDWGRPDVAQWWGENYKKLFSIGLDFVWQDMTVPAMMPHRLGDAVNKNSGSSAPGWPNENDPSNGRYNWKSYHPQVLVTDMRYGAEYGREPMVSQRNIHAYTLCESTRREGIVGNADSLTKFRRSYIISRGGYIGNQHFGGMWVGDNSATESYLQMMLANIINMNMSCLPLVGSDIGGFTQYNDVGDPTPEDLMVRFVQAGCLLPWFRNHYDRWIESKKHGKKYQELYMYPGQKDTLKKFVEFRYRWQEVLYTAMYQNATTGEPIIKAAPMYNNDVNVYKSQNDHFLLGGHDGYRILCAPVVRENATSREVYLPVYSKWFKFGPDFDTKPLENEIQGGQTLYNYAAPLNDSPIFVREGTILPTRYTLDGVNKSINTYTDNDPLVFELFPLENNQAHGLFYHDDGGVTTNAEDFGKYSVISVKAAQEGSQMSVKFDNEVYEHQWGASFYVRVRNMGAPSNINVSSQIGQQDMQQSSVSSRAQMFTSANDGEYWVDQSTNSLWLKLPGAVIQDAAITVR
# [3] = tested on: α-1,4-glucan lyase; test: Km of the lyase; assay type: biochemical, Gracilariopsis lemaneiformis; conditions: substrate of the lyase
# Target sequence in this assay (as listed by the source): as above
# [4] = tested on: lyase and pullulanase; test: Cooperation of pullulanase and lyase in the production of AF; assay type: biochemical; conditions: 2% substrate, 30° C., 1 day
# Method: The reaction mixture contained 0.3 ml 2% potato amylopectin (Sigma) in water or 0.3 ml 2% soluble starch (Merck), 2 μl lyase and 0.36 units pullulanase (BM) as indicated.
# The reaction was carried out at 30° C. for 1 day. At the end of the reaction, samples were taken for AF and Glc analysis.
# [5] = tested on: α-1,4-glucan lyase; test: Degradation studies: AF released by the lyase from various substrates; assay type: biochemical, Gracilariopsis lemaneiformis; conditions: for AF released: substrate 10 mg/ml, 10 mM HOAc-NaOAc pH 3.8, 40 min at 45° C., 100 ul
# Method: Reaction conditions: The reaction mixture contained 10 mM of HOAc-NaOAc (pH 3.8). The substrate concentration was 10 mg/ml. The final volume was 100 ul after the addition of lyase and water. The reaction time was 40 min at 45° C.
# [6] = tested on: α-1,4-glucan lyase; test: Reversible and irreversible inhibitors of the lyase; assay type: biochemical, Gracilariopsis lemaneiformis; conditions: for decrease of lyase activity (inhibition): 0.1 M inhibitor; for inhibition (second, untitled table): lyase not stated
# [7] = tested on: α-1,4-glucan lyase; test: Substrate specificity for oligosaccharides by Dionex HPLC; assay type: biochemical; conditions: 8 mg/ml substrate, 0.1M MES pH 6.3, 60 min at 30° C.
# Method: The specificity of α-1,4-glucan lyase for different oligosaccharides was tested. […] The oligosaccharides were dissolved in H2O at a concentration of 8 mg/ml. The enzyme assay contained 150 μl substrate G2/G3/G4/G5/G6/G7, 120 μl 0.1M MES pH 6.3 and 30 μl purified enzyme. The reaction mixture was incubated for 60 min at 30° C. Afterwards the reaction was stopped by boiling for 3 min and 900 μl absolute ethanol was added for precipitation. After centrifugation at 20.000×g for 5 min at 4° C. the supernatant was transferred to a new eppendorf tube and lyophilized.
# The freeze-dried samples were dissolved in 1000 μl H2O and were filtrated through a 0.22 μm Millipore filter before 25 μl of the sample was loaded on the Dionex HPLC.
# Analyses were performed on a Dionex 4500i chromatography system consisting of a GPM-2 pump and a PED detector which was used in pulse-amperometric detection mode. The anion exchange columns were a CarboPac PA-100 (4×250 mm) and a CarboPac PA-100 guard column (3×25 mm) from Dionex. The eluent were 200 mM sodium hydroxide (A), 500 mM sodium acetate (B) and 18 M ohm de-ionized water (C). The pump was programmed in 2 different ways, method no. 1 and method no.
# [8] = Reduction of 3,5-dinitrosalicylic acid; assay type: physicochemical
# [9] = Induction period of 50% mayonnaise in bomb calorimeter; conditions: +500 ppm in mayonnaise; 80° C., pure O2
# Method: In the test procedure the anti-oxidants were added to the mayonnaise to provide an anti-oxidant concentration in the order of about 500 ppm. The mayonnaise was then placed in a bomb calorimeter at temperature 80° C. containing pure O2. An induction period to the onset of substantial oxidation of the product is then measured.
# [10] = tested on: α-1,4-glucan lyase; test: Formation of AF from amylopectin (HPLC), end-product inhibition; assay type: biochemical; conditions: equal AF after 30 and 120 min incubation
# Method: α-1,4-glucan lyase according to the present invention hydrolyses starch to the end-product 1,5-anhydrofructose. The end-product was shown by HPLC, method 2. The enzyme assay contained 500 μl amylopectin (20 mg/ml, dissolved in H2O), 400 μl 0.1 M MES pH 6.3 and 100 μl purified enzyme. The reaction mixture was incubated at 30° C. and the reaction was stopped by boiling after 30 or 120 min incubation. High-molecular oligosaccharides were precipitated by addition of 3 vol abs. ethanol and the sample was centrifuged and freeze-dried as described above. The samples were dissolved in 125 μl H2O and 25 μl were applied on the HPLC column.
# [11] = ESR analysis of hydroxyl radical scavenging (Fenton reaction, DMPO spin trap); conditions: for Peak height of ESR-spectra [120 s] / Peak height of ESR-spectra [300 s]: H2O2 0.17 mM, Fe2+ 4.8 μM
# Method: Hydroxyl radicals were generated by a Fenton reaction with H2O2 (0.17 mM) and FeSO4 (4.8 μM). The generated radicals were trapped by 5,5-dimethyl-1-pyrroline N-oxide (DMPO, 9.7 mM). AF was added in concentrations of 1.3 mM and 6.3 mM. A water soluble extract of rosemary (Rosmarinus officinalis L.) was analyzed in a concentration of 0.25 mg/ml (in grams equivalent to 1.26 mM AF). Measurements were carried out at room temperature (20±1° C.) after 120 s and repeated for the same reaction mixture after 300 s with the following spectrometer settings: Center field 3475.60 G; sweep width 55 G; microwave power 20 mW; modulation frequency 100 kHz; modulation amplitude 1.01 G; receiver gain 1.00·10^5; conversion time 81.92 ms time constant 163.84 ms and sweep time 83.89 s.
# The spin adduct gives rise to a characteristic 1:2:2:1 ESR spectrum. The peak height of the spectrum is proportional to the quantitative amount of generated spin adduct. Addition of both DMPO and AF will set up a competition between the spin trap and AF. A reduction of peak height will indicate a good scavenging activity of AF.
# [12] = Oxidation of AF by air; assay type: physicochemical; conditions: especially at high temperature, high AF concentration, long exposure
# Text: Catalase is needed to dispel H2O2 formed. H2O2 will oxidize AF into two new compounds which are at present of unknown structure. The other impurities in the AF preparation are the oxidation products of AF. […] Gluconic acid was removed together with the buffer salts by ion exchange chromatography.
# [13] = Electrochemical oxygen consumption in methyl linoleate emulsion; conditions: AF 15, 146 and 680 μM; metmyoglobin initiated; 25.0° C.
# Method: The activity of AF was investigated in a methyl linoleate emulsion as described by Jorgensen and Skibsted (Z. Lebensm. Unters. Forsch. (1993) 196: 423-429) with minor modifications: To 5.00 ml of a 1.33 mM methyl linoleate emulsion in 5.0 mM aqueous phosphate buffer with pH=5.8 and 0.2 w/w % Tween 20 as emulsifier was added AF in the following concentrations: 0, 15, 146 and 680 μM. The oxidation in the system was initiated by addition of 50 μl […] metmyoglobin (MMb) final concentration 0.26 mM. Immediately after initiating the reaction the sample was injected to a thermostated (25.0±0.1° C.) 70 μl closed cell, effectively excluding diffusion of oxygen into the system. The oxygen consumption was measured by a Clark electrode, which was connected to a PC data collection program. The relative oxygen concentration (%) was registered every 30 s.
# [14] = Induction period of yogurt salad dressing with 50% oil
# Text: For each temperature defined as PF=IP of the oil with added antioxidant/IP of the same oil without added antioxidant
# [15] = tested on: α-1,4-glucan lyase; test: Effect of different reaction media upon production of AF by the lyase; assay type: biochemical, Gracilariopsis lemaneiformis; conditions: reaction medium
# Text: The production of AF using either pure water or 0.85% NaCl as reaction medium decreased the yield.
# [16] = Isoelectric focusing of the α-1,4-glucan lyases; assay type: physicochemical; conditions: isoelectrofocusing, pH gradient 3-9
# Text: The relative migration rates were estimated from native PAGE on gels with 8-25% gradient; the pI values were estimated by isoelectrofocusing on gels with a pH gradient of 3-9.
# FIG. 2. Isoelectric focusing of the α-1,4-glucan lyases on a gel with a pH gradient of pH 3 to pH 9. The gel was stained with PhastGel Blue R.
# [17] = lyase added, pullulanase omitted
# [18] = lyase omitted, pullulanase added
molecule,measurement,setting,value
[Cl-].[Na+] [NaCl],increase of AF yield,[1]; 0.85% (0.145 M) in the reaction mixture,up to 1 fold
Amylopectin,effect on stability of the lyase,[2],stabilizing effect
same,Km,[3],3.76 mg/mL
same,AF Yield (%),[4]; [17],48.0%
same,Glc Yield (%),[4]; [17],0%
same,AF Yield (%),[4]; lyase and pullulanase added,71.3%
same,Glc Yield (%),[4]; lyase and pullulanase added,3.7%
same,AF Yield (%),[4]; [18],0%
same,Glc Yield (%),[4]; [18],0.33%
same,AF released,[5],732 nmol
OC[C@H]1O[C@H](O[C@H]2[C@H](O)[C@@H](O)C(O)O[C@@H]2CO)[C@H](O)[C@@H](O)[C@@H]1O (mixture of isomers) [Maltose],decrease of lyase activity (inhibition),[6]; substrate amylopectin 1% (10 mg/ml),73.4%
same,decrease of lyase activity (inhibition),[6]; substrate amylopectin 2%,67.2%
same,decrease of lyase activity (inhibition),[6]; substrate glycogen 1% (10 mg/ml),48.8%
same,decrease of lyase activity (inhibition),[6]; substrate glycogen 2%,49.7%
same,"inhibition (second, untitled table)",[6]; substrate amylopectin (1%),80%
same,"inhibition (second, untitled table)",[6]; substrate glycogen (1%),57%
same,activity of the lyase towards maltosaccharides,[5]; in words,low activity
same,AF released,[5],657 nmol
same,"1,5-anhydrofructose formation from substrate",[7],"almost no 1,5-anhydrofructose was formed"
O=C(O)CN(CCN(CC(=O)O)CC(=O)O)CC(=O)O [EDTA],effect on lyase activity,[1]; up to 20 mM in the reaction mixture,little effect
Glycogen,Km,[3],3.37 mg/mL
same,AF released,[5],592 nmol
"O=C1CO[C@H](CO)[C@@H](O)[C@@H]1O [AF, 1,5-D-anhydrofructose]",reducing agent (antioxidant) activity,[8],"can easily reduce 3,5-dinitrosalicylic acid"
same,IP hours (Induction Period),[9],"32,0 hours"
same,inhibition of enzyme activity by end-product,[10],not inhibited
same,scavenging activity of hydroxyl radicals,[11]; 1.3 mM AF,no scavenging activity
same,Peak height of ESR-spectra [120 s],[11]; 1.3 mM AF,2634
same,Peak height of ESR-spectra [300 s],[11]; 1.3 mM AF,2545
same,scavenging activity of hydroxyl radicals,[11]; 6.3 mM AF,peak height is reduced
same,Peak height of ESR-spectra [120 s],[11]; 6.3 mM AF,1781
same,Peak height of ESR-spectra [300 s],[11]; 6.3 mM AF,1900
same,oxidation by air-level of oxygen,[12],can slowly be oxidized
same,oxygen consumption curve,[13],lag-phase is observed
same,IP hours (Induction Period),[14]; 500 ppm in yogurt salad dressing,39.5 h
same,PF (Protection Factor),"[14]; 500 ppm, IP with antioxidant / IP without",1.06
O [Water],AF yield,[15]; reaction time 1 day,46 µmol
same,AF yield,[15]; reaction time 3 days,128 µmol
same,AF yield,[15]; reaction time 8 days,217 µmol
"MV-lyase: lyase isolated from the fungus Morchella vulgaris, ATCC (protein) MAGLSDPLNFCKAEDYYAAAKGWSGPQKIIRYDQTPPQGTKDPKSWHAVNLPFDDGTMCVVQFVRPCVWRVRYDPSVKTSDEYGDENTRTIVQDYMTTLVGNLDIFRGLTWVSTLEDSGEYYTFKSEVTAVDETERTRNKVGDGLKIYLWKNPFRIQVVRLLTPLVDPFPIPNVANATARVADKVVWQTSPKTFRKNLHPQHKMLKDTVLDIIKPGHGEYVGWGEMGGIEFMKEPTFMNYFNFDNMQYQQVYAQGALDSREPLYHSDPFYLDVNSNPEHKNITATFIDNYSQIAIDFGKTNSGYIKLGTRYGGIDCYGISADTVPEIVRLYTGLVGRSKLKPRYILGAHQACYGYQQESDLHAVVQQYRDTKFPLDGLHVDVDFQDNFRTFTTNPITFPNPKEMFTNLRNNGIKCSTNITPVISIRDRPNGYSTLNEGYDKKYFIMDDRYTEGTSGDPQNVRYSFYGGGNPVEVNPNDVWARPDFGDNYDFPTNFNCKDYPYHGGVSYGYGNGTPGYYPDLNREEVRIWWGLQYEYLFNMGLEFVWQDMTTPAIHSSYGDMKGLPTRLLVTADSVTNASEKKLAIESWALYSYNLHKATFHGLGRLESRKNKRNFILGRGSYAGAYRFAGLWTGDNASTWEFWKISVSQVLSLGLNGVCIAGSDTGGFEPARTEIGEEKYCSPELLIRWYTGSFLLPWLRNHYVKKDRKWFQEPYAYPKHLETHPELADQAWLYKSVLEICRYWVELRYSLIQLLYDCMFQNVVDGMPLARSMLLTDTEDTTFFNESQKFLDNQYMAGDDILVAPILHSRNEVPGENRDVYLPLFHTWYPSNLRPWDDQGVALGNPVEGGSVINYTARIVAPEDYNLFHNVVPVYIREGAIIPQIQVRQWIGEGGPNPIKFNIYPGKDKEYVTYLDDGVSRDSAPDDLPQYREAYEQAKVEGKDVQKQLAVIQGNKTNDFSASGIDKEAKGYHRKVSIKQESKDKTRTVTIEPKHNGYDPSKEVGNYYTIILWYAPGFDGSIVDVSQATVNIEGGVECEIFKNTGLHTVVVNVKEVIGTTKSVKITCTTA",pI,[16],4.4

# From US6541237B1, “A-1,4-glucan lyase and its use in the production of 1.5-androfructose” (Danisco A/S, priority 1994, dated 2003)
